Results taken from PubChem BioAssay (NCI).
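Cells were grown in 96-well plates and exposed to each compound for 48 hours at five concentrations; endpoints were interpolated linearly between bracketing concentrations, or set to the highest concentration if not reached. The concentration for full growth arrest is given as TGI.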 *1 amine or outer side, *2 acyl side, *3 side chain or, on linkers, in order; H or OH if unused. Where a SMILES comes first, the peptide text is derived from it. The star is where a group is joined. γGlu = O=C(O)[CH](CCC(=O)[*:2])N[*:1]; NHOH = ON*

Columns and labels:
Test in all cases: inhibition of tumour cell growth, NCI panel, 48 h
HCT-116 colon = tested on: HCT-116 colon
OVCAR-5 ovarian = tested on: OVCAR-5 ovarian
HOP-62 NSCLC = tested on: HOP-62 NSCLC
NCI/ADR-RES ovarian = tested on: NCI/ADR-RES ovarian
RXF 393 renal = tested on: RXF 393 renal
IGROV1 ovarian = tested on: IGROV1 ovarian
MDA-N = tested on: MDA-N
SK-MEL-2 melanoma = tested on: SK-MEL-2 melanoma
786-0 renal = tested on: 786-0 renal
KM20L2 colon = tested on: KM20L2 colon
M19-MEL melanoma = tested on: M19-MEL melanoma
DLD-1 colon = tested on: DLD-1 colon

| SMILES | TGI (HCT-116 colon) | TGI (OVCAR-5 ovarian) | TGI (HOP-62 NSCLC) | TGI (NCI/ADR-RES ovarian) | TGI (RXF 393 renal) | TGI (IGROV1 ovarian) | TGI (MDA-N) | TGI (SK-MEL-2 melanoma) | TGI (786-0 renal) | TGI (KM20L2 colon) | TGI (M19-MEL melanoma) | TGI (DLD-1 colon) |
| --- | --- | --- | --- | --- | --- | --- | --- | --- | --- | --- | --- | --- |
| COc1cc(/C=C2\CC3C4CC=C5C[C@@H](O)CC[C@]5(C)C4CC[C@]3(C)\C2=N\O)cc(OC)c1OC (stereo partly specified) | 21.2 µM | 61.1 µM | > 100 µM | 74.3 µM | 25.1 µM | > 100 µM | 69.6 µM | 17.1 µM | 72.2 µM |  |  |  |
| NC(CCC(=O)NC(CCC(=O)NO)C(=O)NCC(=O)O)C(=O)O (stereo unspecified) (γGlu-Glu(NHOH)-Gly-OH; configuration not given here) | > 100 µM | > 100 µM | > 100 µM | > 100 µM | > 100 µM | > 100 µM | > 100 µM | > 100 µM | > 100 µM |  |  |  |
| C[N+](C)(N)Cc1nc(-c2ccc(Cl)cc2)no1 | > 100 µM | > 100 µM | > 100 µM | > 100 µM | > 100 µM | > 100 µM | > 100 µM | > 100 µM | > 100 µM |  |  |  |
| COC(=O)C12C(=O)CC3CCC1C32C(=O)OC (stereo unspecified) | > 100 µM | > 100 µM | > 100 µM | > 100 µM | > 100 µM | > 100 µM | > 100 µM | > 100 µM | > 100 µM |  |  |  |
| CCOC(=O)CCCN | > 100 µM | > 100 µM | > 100 µM | > 100 µM | > 100 µM | > 100 µM | > 100 µM | > 100 µM | > 100 µM |  |  |  |
| COc1nc2ncc([C@@H](OC(C)=O)[C@@H](COC(C)=O)OC(C)=O)nc2c(=O)n1C | > 100 µM | > 100 µM | > 100 µM | > 100 µM | > 100 µM | > 100 µM | > 100 µM | > 100 µM | > 100 µM |  |  |  |
| Cc1ccc2[nH]c3c(c2c1)C1CCC(C(C)(C)C)CC1C1C(=O)N(c2ccc(Oc4ccccc4)cc2)C(=O)C31 (stereo unspecified) | > 100 µM | > 81 µM | > 100 µM | > 100 µM | 29.1 µM | > 100 µM | > 100 µM | > 100 µM | 28.3 µM |  |  |  |
| Cc1ccc(N=NC(=Nc2ccc(F)cc2)c2ccc(N(CCC#N)CCC#N)cc2)cc1 | > 100 µM | > 100 µM | > 100 µM | > 100 µM | > 100 µM | > 100 µM | > 100 µM | > 100 µM | > 100 µM |  |  |  |
| COC(=O)[C@H](Cc1ccccc1)NC(=O)N(CCN(CCC#N)C(=O)N[C@H](C(=O)OC)C(C)C)c1ccccc1 | > 100 µM | > 100 µM | > 100 µM | > 100 µM | > 100 µM | > 100 µM | > 100 µM | > 100 µM | > 100 µM |  |  |  |
| COC1CCC(O)C(CO)O1 (stereo unspecified) | > 100 µM | > 100 µM | > 100 µM |  | > 100 µM | 61.2 µM |  | > 100 µM |  | > 100 µM | > 100 µM | > 100 µM |
| CN(C(=O)Cc1cc(Cl)c(Cl)cc1NC(=O)CCCN)[C@H]1CCCC[C@@H]1N1CCCC1 | > 100 µM | > 100 µM | > 100 µM | > 100 µM | 48.7 µM | > 100 µM | 30.7 µM | 40.5 µM | 36.2 µM |  |  |  |
| C[C@]12C(=O)OC[C@H](c3ccccc3)N1C(=O)N(Cc1ccccc1)[C@@H]2CO | > 100 µM | > 100 µM | > 100 µM | > 100 µM | > 100 µM | > 100 µM | > 100 µM | > 100 µM | > 100 µM |  |  |  |
| C/C(=N/NC(=S)N1CCCCCC1)c1cccc(/C(C)=N\NC(=S)N2CCCCCC2)n1 | 3.48 µM | 5.26 µM | 3.82 µM | 3.86 µM | 3.69 µM | 2.86 µM | 4.9 µM | 3.81 µM | 2.63 µM |  |  |  |
| O=C(CN1CCCCC1)c1ccc2[nH]c(=O)oc2c1 | > 100 µM | > 100 µM | > 100 µM | > 100 µM | > 100 µM | > 100 µM | > 100 µM | > 100 µM | > 100 µM |  |  |  |
